IC50 data for 24 compounds are collected here from patent publication US10759783B2, “Biaryl inhibitors of Bruton'S tyrosine kinase” (BIOGEN MA INC., priority 2013, dated 2020).

For one test, the target named is T1, BTK enzyme (Homo sapiens, UniProt Q06187).
T1 construct: purchased Upstate 14-552
The experiment in a line: In vitro BTK kinase assay: BTK-POLYGAT-LS assay. The test is classed as biochemical. Particulars: ATP 10 μM, read-out: IC50 (10uMATP). The method, boiled down: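 Human BTK activity was measured with final 10 μM ATP and 100 nM polyGAT substrate in pH 7.5 Tris buffer with 10 mM MgCl2, DTT, Triton X-100 and casein.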

In test [1] the target is BTK (phospho-BTK) in human whole blood (Homo sapiens, UniProt Q06187). The experiment in a line: In vitro PD assay in human whole blood (pBTK assay).
Chain of BTK (phospho-BTK) in human whole blood (Q06187 whole entry): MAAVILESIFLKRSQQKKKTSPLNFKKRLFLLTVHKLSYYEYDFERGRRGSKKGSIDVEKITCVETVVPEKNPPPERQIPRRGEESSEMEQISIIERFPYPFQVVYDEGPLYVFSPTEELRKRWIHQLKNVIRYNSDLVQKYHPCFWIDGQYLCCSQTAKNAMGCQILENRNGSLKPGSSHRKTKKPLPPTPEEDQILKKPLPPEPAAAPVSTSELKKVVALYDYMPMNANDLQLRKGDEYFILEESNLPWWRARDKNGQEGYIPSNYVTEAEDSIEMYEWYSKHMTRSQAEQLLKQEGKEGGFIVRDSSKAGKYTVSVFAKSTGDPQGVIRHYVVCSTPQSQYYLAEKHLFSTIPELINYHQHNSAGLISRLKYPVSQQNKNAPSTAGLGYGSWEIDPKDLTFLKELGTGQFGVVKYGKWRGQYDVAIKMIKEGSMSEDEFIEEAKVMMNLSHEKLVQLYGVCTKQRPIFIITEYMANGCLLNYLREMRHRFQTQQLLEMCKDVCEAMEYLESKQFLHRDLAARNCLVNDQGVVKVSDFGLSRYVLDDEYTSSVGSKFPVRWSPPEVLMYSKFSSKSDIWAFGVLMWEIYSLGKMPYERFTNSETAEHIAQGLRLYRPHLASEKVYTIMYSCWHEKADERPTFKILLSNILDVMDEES

T1 sequence (Q06187 whole entry): as above

In the case of `CC(C)OC1CN(C(=O)NC2CCCCc3cc(-c4ccnc(Nc5cnn([C@H]6CCOC6)c5)n4)ccc32)C1` (stereo partly drawn) [Example I-338, 3-isopropoxy-N-[2-[2-[[1-[(3S)-tetrahydrofuran-3-yl]pyrazol-4-yl]amino]pyrimidin-4-yl]-6,7,8,9-tetrahydro-5H-benzo[7]annulen-5-yl]azetidine-1-carboxamide], the half-inhibitory concentration (IC50) (commonly the concentration at which inhibition is half-maximal) at BTK enzyme is under 0.01 µM; in test [1] it was under 0.5 µM.
Take `Cc1cc(-c2ccnc(Nc3cnn(C(C)(C)C(=O)NCC(F)(F)F)c3)n2)ccc1CNC(=O)N1CC(OC(C)C)C1` [Example I-312, N-[[4-[2-[[1-[1,1-dimethyl-2-oxo-2-(2,2,2-trifluoroethylamino)ethyl]pyrazol-4-yl]amino]pyrimidin-4-yl]-2-methyl-phenyl]methyl]-3-isopropoxy-azetidine-1-carboxamide]: the results for the IC50 (at BTK enzyme; in test [1]) were under 0.01 µM and under 0.5 µM, respectively.
On the same counts, the results for `CC(C)C1CCN(C(=O)NC2CCCCc3cc(-c4ccnc(Nc5cnn(CCO)c5)n4)ccc32)C1` (stereo not drawn) [Example I-181, N-(2-(2-((1-(2-hydroxyethyl)-1H-pyrazol-4-yl)amino)pyrimidin-4-yl)-6,7,8,9-tetrahydro-5H-benzo[7]annulen-5-yl)-3-isopropylpyrrolidine-1-carboxamide] are under 0.01 µM and under 0.5 µM.
Take `Cc1cc(-c2ccnc(Nc3cnn(CCO)c3)n2)ccc1CNC(=O)c1cc2c(s1)CCOC2` [Example I-120, N-(4-(2-((1-(2-hydroxyethyl)-1H-pyrazol-4-yl)amino)pyrimidin-4-yl)-2-methylbenzyl)-6,7-dihydro-4H-thieno[3,2-c]pyran-2-carboxamide]: the IC50 at BTK enzyme was under 0.01 µM; in test [1] it was 0.5 to 1.5 µM.
The like results for `CC(C)(C)OC1CN(C(=O)NC2CCCCc3cc(-c4ccnc(Nc5cnn(C6CCNCC6)c5)n4)ccc32)C1` (stereo not drawn) [Example I-343, 3-tert-butoxy-N-[2-[2-[[1-(4-piperidyl)pyrazol-4-yl]amino]pyrimidin-4-yl]-6,7,8,9-tetrahydro-5H-benzo[7]annulen-5-yl]azetidine-1-carboxamide] were, in that order, under 0.01 µM and under 0.5 µM.
On the same counts, the results for `Cc1cc(-c2ccnc(Nc3cnn(C)c3)n2)ccc1CNC(=O)N1CCN(C(C)(C)C)CC1` [Example I-23, 4-(tert-butyl)-N-(2-methyl-4-(2-((1-methyl-1H-pyrazol-4-yl)amino)pyrimidin-4-yl)benzyl)piperazine-1-carboxamide] are 0.1 to 0.999 µM and 1.5 to 10 µM.
The like results for `Cn1cc(Nc2nccc(-c3ccc4c(c3)CCNCC4NC(=O)N3CC(OC(C)(C)C)C3)n2)cn1` (stereo not drawn) [Example I-248, 3-(tert-butoxy)-N-(7-(2-((1-methyl-1H-pyrazol-4-yl)amino)pyrimidin-4-yl)-2,3,4,5-tetrahydro-H-benzo[d]azepin-1-yl)azetidine-1-carboxamide] were, in that order, under 0.01 µM and under 0.5 µM.
Turning to `COCCn1cc(Nc2nccc(-c3ccc4c(c3)CCCCC4NC(=O)N3CCC(C(C)C)C3)n2)cn1` (stereo not drawn) [Example I-183, 3-Isopropyl-N-(2-(2-((1-(2-methoxyethyl)-1H-pyrazol-4-yl)amino)pyrimidin-4-yl)-6,7,8,9-tetrahydro-5H-benzo[7]annulen-5-yl)pyrrolidine-1-carboxamide], the IC50 on BTK enzyme is under 0.01 µM; in test [1], under 0.5 µM.
On to `Cc1cc(-c2ccnc(Nc3cnn(C4CCOCC4)c3)n2)ccc1CNC(=O)c1cnc(C(C)(C)C)s1` [Example I-38, 2-(tert-butyl)-N-(2-methyl-4-(2-((1-(tetrahydro-2H-pyran-4-yl)-1H-pyrazol-4-yl)amino)pyrimidin-4-yl)benzyl)thiazole-5-carboxamide], for which the IC50 at BTK enzyme was under 0.01 µM; in test [1], 0.5 to 1.5 µM.
For `COCCn1cc(Nc2nccc(-c3ccc(CNC(=O)N4CC(OC(C)C)C4)c(C(F)(F)F)c3)n2)cn1` [Example I-351, 3-isopropoxy-N-[[4-[2-[[1-(2-methoxyethyl)pyrazol-4-yl]amino]pyrimidin-4-yl]-2-(trifluoromethyl)phenyl]methyl]azetidine-1-carboxamide], the 50% inhibitory concentration (IC50) at BTK enzyme is under 0.01 µM; in test [1], under 0.5 µM.
On the same counts, the results for `Cc1cc(-c2ccnc(Nc3cnn(C[C@@H](N)C(=O)O)c3)n2)ccc1CNC(=O)c1cnc(C(C)(C)C)s1` [Example I-132, (R)-2-amino-3-(4-((4-(4-((2-(tert-butyl)thiazole-5-carboxamido)methyl)-3-methylphenyl)pyrimidin-2-yl)amino)-1H-pyrazol-1-yl)propanoic acid] are under 0.01 µM and 1.5 to 10 µM.
The like results for `CC(C)OC1CN(C(=O)NC2CCCCc3cc(-c4ccnc(Nc5cnn([C@@H]6CCOC6)c5)n4)ccc32)C1` (stereo partly drawn) [Example I-333, 3-isopropoxy-N-[2-[2-[[1-[(3R)-tetrahydrofuran-3-yl]pyrazol-4-yl]amino]pyrimidin-4-yl]-6,7,8,9-tetrahydro-5H-benzo[7]annulen-5-yl]azetidine-1-carboxamide] were, in that order, under 0.01 µM and under 0.5 µM.
On the same counts, the results for `CC(C)OC1CN(C(=O)NC2CCCCc3cc(-c4ccnc(Nc5cnn(C(C)C)c5)n4)ccc32)C1` (stereo not drawn) [Example I-167, 3-isopropoxy-N-(2-(2-((1-isopropyl-1H-pyrazol-4-yl)amino)pyrimidin-4-yl)-6,7,8,9-tetrahydro-5H-benzo[7]annulen-5-yl)azetidine-1-carboxamide] are under 0.01 µM and under 0.5 µM.
Consider `CC(C)OC1CN(C(=O)NC2CCCCc3cc(-c4ccnc(Nc5cnn(CCO)c5)n4)ccc32)C1` (stereo not drawn) [Example I-168, N-(2-(2-((1-(2-hydroxyethyl)-1H-pyrazol-4-yl)amino)pyrimidin-4-yl)-6,7,8,9-tetrahydro-5H-benzo[7]annulen-5-yl)-3-isopropoxyazetidine-1-carboxamide], for which the IC50 on BTK enzyme is under 0.01 µM; in test [1], under 0.5 µM.
On the same counts, the results for `COC1CN(C(=O)NCc2ccc(-c3ccnc(Nc4cnn(C)c4)n3)cc2C)C1` [Example I-300, 3-methoxy-N-[[2-methyl-4-[2-[(1-methylpyrazol-4-yl)amino]pyrimidin-4-yl]phenyl]methyl]azetidine-1-carboxamideacid] are 0.01 to 0.099 µM and under 0.5 µM.
In the case of `COCCn1cc(Nc2nccc(-c3ccc(CNC(=O)N4CCC(C(C)(C)C)C4)c(C(F)(F)F)c3)n2)cn1` (stereo not drawn) [Example I-295, 3-tert-butyl-N-[[4-[2-[[1-(2-methoxyethyl)pyrazol-4-yl]amino]pyrimidin-4-yl]-2-(trifluoromethyl)phenyl]methyl]pyrrolidine-1-carboxamide], the IC50 on BTK enzyme is under 0.01 µM; in test [1], under 0.5 µM.
For `[2H]C([2H])([2H])n1cc(Nc2cc(-c3ccc(CNC(=O)N4CC(OC(C)C)C4)c(C)c3)ncn2)cn1` [Example I-243, 3-isopropoxy-N-(2-methyl-4-(6-((1-d3-methyl-1H-pyrazol-4-yl)amino)pyrimidin-4-yl)benzyl)azetidine-1-carboxamide], the IC50 on BTK enzyme was under 0.01 µM; in test [1], under 0.5 µM.
The like results for `Cc1cc(-c2ccnc(Nc3cnn(C4CCN(C)CC4)c3)n2)ccc1CNC(=O)c1cc(C(C)(C)C)on1` [Example I-196, 5-(tert-butyl)-N-(2-methyl-4-(2-((1-(1-methylpiperidin-4-yl)-1H-pyrazol-4-yl)amino)pyrimidin-4-yl)benzyl)isoxazole-3-carboxamide] were, in that order, under 0.01 µM and under 0.5 µM.
The like results for `Cc1cc(-c2cc(Nc3cn(C)cn3)ncn2)ccc1CNC(=O)c1cnc(C(C)(C)C)s1` [Example I-65, 2-(tert-butyl)-N-(2-methyl-4-(6-((1-methyl-1H-imidazol-4-yl)amino)pyrimidin-4-yl)benzyl)thiazole-5-carboxamide] were, in that order, under 0.01 µM and 0.5 to 1.5 µM.
On the same counts, the results for `Cc1cc(-c2ccnc(Nc3ccc(N4CCN(C)CC4)cn3)n2)ccc1CNC(=O)c1cnc(C(C)(C)C)s1` [Example I-62, 2-(tert-butyl)-N-(2-methyl-4-(2-((5-(4-methylpiperazin-1-yl)pyridin-2-yl)amino)pyrimidin-4-yl)benzyl)thiazole-5-carboxamide] are under 0.01 µM and 1.5 to 10 µM.
Regarding `Cc1cc(-c2cc(Nc3cc4n(n3)CCN(C)C4)ncn2)ccc1CNC(=O)N1CC[C@H](C(C)(C)C)C1` [Example I-245, (R)-3-(tert-butyl)-N-(2-methyl-4-(6-((5-methyl-4,5,6,7-tetrahydropyrazolo[1,5-a]pyrazin-2-yl)amino)pyrimidin-4-yl)benzyl)pyrrolidine-1-carboxamide], the IC50 at BTK enzyme was under 0.01 µM; in test [1], under 0.5 µM.
For `COCCn1cc(Nc2nccc(-c3ccc(CNC(=O)c4cnc(C(C)(C)C)s4)c(C)c3)n2)cn1` [Example I-39, 2-(tert-butyl)-N-(4-(2-((1-(2-methoxyethyl)-1H-pyrazol-4-yl)amino)pyrimidin-4-yl)-2-methylbenzyl)thiazole-5-carboxamide], the IC50 on BTK enzyme is under 0.01 µM; in test [1], under 0.5 µM.
`Cc1cc(-c2cc(Nc3cc4n(n3)CC(C)N(C)C4)ncn2)ccc1CNC(=O)c1cnc(C(C)(C)C)s1` (stereo not drawn) [Example I-279, 2-tert-butyl-N-[[4-[6-[(5,6-dimethyl-6,7-dihydro-4H-pyrazolo[1,5-a]pyrazin-2-yl)amino]pyrimidin-4-yl]-2-methyl-phenyl]methyl]thiazole-5-carboxamide]: the IC50 is under 0.01 µM at BTK enzyme and under 0.5 µM in test [1].
The like results for `Cc1cc(-c2ccnc(Nc3cnn(C4CCN(S(C)(=O)=O)CC4)c3)n2)ccc1CNC(=O)c1cnc(C(C)(C)C)s1` [Example I-47, 2-(tert-butyl)-N-(2-methyl-4-(2-((1-(1-(methylsulfonyl)piperidin-4-yl)-1H-pyrazol-4-yl)amino)pyrimidin-4-yl)benzyl)thiazole-5-carboxamide] were, in that order, under 0.01 µM and 0.5 to 1.5 µM.
